{"source": "paper PMC3429785", "about": "(Bioconjugate chemistry, 2012)", "key": {"[1]": {"system": "HXB2 luciferase reporter pseudovirions (HOS-CD4-CXCR4 target cells)", "experiment": "Pseudovirion infectivity assay, HXB2", "assay_type": "cell-based, HIV-1", "details": "HXB2 strain"}, "[2]": {"system": "JRFL luciferase reporter pseudovirions (HOS-CD4-CCR5 target cells)", "experiment": "Pseudovirion infectivity assay, JRFL", "assay_type": "cell-based, HIV-1", "details": "JRFL strain"}}}
{"substance": "C34-PEG2-Chol: C-peptide (C34) cholesterol conjugate with short PEG2 linker [reference compound]", "values": [{"measurement": "fold improved potency of cholesterol conjugate compared to C34", "setting": "[1]", "result": "~ 40 fold"}]}
{"substance": "C34-PEG11-Chol: C-peptide (C34) cholesterol conjugate with PEG11 linker", "values": [{"measurement": "additional fold improvement in potency over short PEG2 linker", "setting": "[1]", "result": 2, "unit": "fold"}]}
{"substance": "C34-PEG80-Chol: C-peptide (C34) cholesterol conjugate with PEG80 linker", "values": [{"measurement": "fold worse than the optimal PEG length", "setting": "[2]", "result": 4, "unit": "fold"}]}
